Data from patent US20250186597A1, “TARGETED IMMUNE ACTIVATION WITH IL-18 IMMUNOCYTOKINES” (BRIGHT PEAK THERAPEUTICS AG, priority 2023, published 2025).
pEC50, pIC50, pKd: −log10 of the molar value.

Columns and labels:
[1] = test system: PD-1 positive (transduced) KG-1 cells; test: IFN gamma secretion assay in PD-1 transduced KG-1 cells (Example 11); format: cell-based, human
Method: The KG-1 cell line was used to generate a PD-1 expressing cell line and furthermore, to measure IFNγ release upon incubation with IL-18 variants and corresponding IL-18 immunocytokines.
PD-1 expressing cell line generation: Briefly, KG-1 cells were transduced using lentiviral particles carrying the human PD-1 gene (PDCD1 NM_005018; Origene, CAT #: RC210364L3V) at a MOI (Multiplicity of Infection) of 30. Spinfection was performed at 1260 g during 90 min at 37° C. in the presence of 5 μg/ml of Polybrene and 10 mM of HEPES in complete culture media (RPMI, 10% FBS, 1% L-Glutamine). Five days after transduction, puromycin at a final concentration of 1 ug/ml was added to select for PD-1 positive cells. For culture maintenance, puromycin concentration was decreased to 0.5 μg/ml. Stable and homogenous expression of PD-1 was verified by surface staining (BD Pharmingen, #557860).
IFNγ release was assessed in PD-1 positive (transduced) KG-1 cells, as well as in the parental PD-1 negative cells. 0.5×10^5 cells were seeded into a 96-well U-bottom plate in culture media (RPMI, 10% FBS, 1% L-Glutamine) and stimulated with IL-18 variants/ICs for 20-24 h. The test items were diluted to 100 nM in culture medium, followed by 7 10-fold serial dilutions. The lowest concentration assessed was […]. After incubation, IFNγ release was measured using the LEGENDplex custom human mix and match KIT (Biolegend LEGENDplex™ Human IFN-γ Capture Bead B5, 13X #740942, LEGENDplex™ HU Essential Immune Response Panel Detection Abs, #740931, LEGENDplex™ Buffer Set A #740368). To this end, cell culture supernatant was collected and diluted 1:1 with Assay Buffer. Fluorescence measurements were done with a Quanteon Flow Cytometer from Acea Biosciences. For analysis, MFI values (median fluorescence intensity) were exported and plotted against concentrations used. The EC50 values (half maximal effective concentration) were calculated based on a variable slope and four parameter analysis using GraphPad PRISM software version 9.

[2] = molecular target: T1, human IL-18 Binding Protein (IL-18BP) (Homo sapiens, UniProt O95998); test: IL-18 Binding Protein alphaLISA assay (Example 12); conditions: human IL-18BP
T1 sequence (O95998 31-194): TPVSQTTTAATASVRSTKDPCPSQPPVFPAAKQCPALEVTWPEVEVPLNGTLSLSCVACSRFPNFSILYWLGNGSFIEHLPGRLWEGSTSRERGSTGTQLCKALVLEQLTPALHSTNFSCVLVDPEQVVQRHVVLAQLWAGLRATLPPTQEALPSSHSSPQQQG
Method: Wild type or modified IL-18 polypeptides samples were diluted at 5.6 μM in a solution of 1× alphaLISA Immunoassay Buffer provided in the alphaLISA IFNγ Detection kit and were diluted applying 3-fold serial dilutions down to […] in 384 deep well plates. A solution of 10 ng/ml of human IL-18BP-His was prepared with 1×alphaLISA Immunoassay Buffer. IL-18/IL-18BP complex formation was performed incubating 30 μl of IL-18BP solution to IL-18 sample titrations for 1 h at 20° C. IL-18BP standard was prediluted from stock solution supplied in alphaLISA IFNγ Detection kit at 100 ng/ml with 1×alphaLISA Buffer and titration prepared from applying 2-fold serial dilutions. The following solutions were prepared: a 50 μg/ml solution of anti-IL-18BP alphaLISA Acceptor beads, a 5 nM solution of biotinylated anti-IL18BP antibody and a 80 μg/ml light-protected solution of Streptavidin Donor beads in 1×alphaLISA Immunoassay Buffer. […]
5 μl of Biotinylated anti-IL-18BP antibody were added, followed by a short centrifugation step at 150 g, and incubated for 60 minutes at 20° C. under shaking at 750 rpm. […] AlphaLisa signal was then measured on an Enspire plate reader (Perkin Elmer) using 680 and 615 nm as excitation and emission wavelengths respectively. […]

[3] = test system: parental PD-1negative NK-92 cells; test: IL-18BP mediated inhibition of IFN gamma secretion in parental PD-1 negative NK-92 cells (Example 18); format: cell-based, human; conditions: IL-18BP-mediated inhibition of IFNγ secretion, IL-18 analyte 1 nM
Method: (§1) To characterize the resistance of anti-PD1-IL18 immunocytokines (IC) on PD-1 positive cells, the NK-92 cell line was used to generate a PD-1 expressing cell line and furthermore, to measure the inhibition of IFN[…] release upon incubation with IL-18 variants and ICs in the presence of increasing quantities of human IL-18BP.
(§2) On the day of experiment, parental PD-1^negative and PD-1^positive transduced cells were harvested and washed with PBS 1× and resuspended in medium (w/o IL-2) containing 1 ng/ml of recombinant human Interleukin-12 (SinoBiologicals, Cat #CT011-H08H). After counting, cells were seeded at 100 000 cells/well in a 384 well culture plate and incubated at 37° C./5% CO2. When indicated, cells were preincubated with anti-PD-1 antibody LZM-009 at 17 uM during 30 min at 37° C. […]
(§3) After 16-20 h incubation at 37° C./5% CO2, 5 μl of supernatant were carefully transferred to a 384 microwell OptiIPlate (Perkin Elmer; Cat #6007270) and Interferon-gamma (IFNγ) levels measured using the Human IFNγ AlphaLISA Assay Kit (Perkin Elmer, Cat #AL217C). […] AlphaLISA signal was then measured on an Enspire plate reader (Perkin Elmer) using 680 and 615 nm as excitation and emission wavelengths respectively. Half maximal inhibitory concentration (IC50) was calculated based on a variable slope, four parameter analysis using GraphPad PRISM software.

[4] = test system: PD-1positive transduced NK-92 cells; test: IL-18BP mediated inhibition of IFN gamma secretion in PD-1 positive transduced NK-92 cells (Example 18); format: cell-based, human
Method: as §1, §2, §3

pEC50 ([1]; IFNγ secretion, PD-1 transduced KG-1): 9.53 | PD-1^neg/PD-1^pos EC50 ratio ([1]; KG-1 cells): 1.298 | pKd [2]: 9.39 | pIC50 ([4]; IL-18BP-mediated inhibition of IFNγ secretion, IL-18 analyte 1 nM): 8.57 | PD-1^pos/PD-1^neg IC50 ratio ([4]; NK-92 cells): 1.2
Substance: SEQ ID NO: 1: Native sequence of human IL-18 (bioactive form) [reference compound]
pIC50 [3]: 8.53
